Values joined by “and” are separate entries in the source; they are usually repeats but may differ in a detail not shown here. Identical values can stand only once.

As usually defined, the IC50 is the concentration that gives 50% inhibition. Read a low IC50 as greater potency in that assay.

The subject of this assay is P. falciparum 3D7 growth, pLDH absorbance. Kind of assay: blood-stage malaria parasite growth potency – strain 3D7, dose response (AID 2305).
For `C/C=C1\CN2CC[C@H]1C[C@H]2[C@H](O)c1ccnc2ccc(OC)cc12`, the IC50 was 220 nM and 320 nM.
Compound `COc1ccc(-c2nc(NC(=O)CS(=O)(=O)c3ccc(OC)cc3)sc2C)cc1` showed an IC50 of 300 nM.
`COc1ccc(-c2ccc3c(-c4ccc(F)cc4)cnc(N)c3c2)cn1` registered a half-inhibitory concentration (IC50) of 390 nM.
In turn, `COc1cc2nc(NCCN3CCOCC3)n3nc(-c4ccccc4)nc3c2cc1OC` came in with an IC50 of 220 nM.
Then `N#Cc1cncc(-c2nc3c(N4CCC(Cc5ccccc5)CC4)cccc3n2CCNCc2ccccc2)c1`, with 570 nM.
Then `Cn1cnc(CCNC(=O)c2cccc(-c3cccc(-c4nc5ccc(C(F)(F)F)cc5[nH]4)c3)c2)c1`, with 700 nM; and `CCc1c(CCNCCCCCCNC(C)(C)Cc2ccc3c(c2CC)OCO3)ccc(OC)c1OC`, with 930 nM; and `O=C(/C=C/c1ccc(-c2ccccc2)cc1)NCCCCCN1CCC(c2c[nH]c3ccccc23)CC1`, with 850 nM.
In turn, `O=C(/C=C/c1ccc(Cl)c(Cl)c1)NCCCCCN1CCC(NC(=O)Nc2ccc(Oc3ccccc3)cc2)C1` (centres undefined) came in with an IC50 of 590 nM.
Then `Oc1ccc(CCNc2nc(NCCCOc3ccccc3-c3cccnc3)nc(N3CCNCC3)n2)cc1`, with 1040 nM.
The compound `Cn1cnc2c(Nc3ccncc3)nc(-c3ccc4c(c3)OCO4)nc21` showed an IC50 of 1110 nM.
`O=C(N[C@H]1CCN(Cc2ccc(OCCCN3CCCCC3)cc2)C1)c1ccc(Oc2ccccc2)cc1`: the IC50 is 780 nM.
The compound `Cn1cncc1C(=O)Nc1cccc(-c2csc(-c3nc4ccccc4[nH]3)c2)c1` displayed an IC50 of 450 nM.
Take `COc1ccc(C=NNc2cc(C)nc3ccc(C)cc23)c2ccccc12`: the IC50 was 860 nM.
On to `O=C(/C=C/c1ccc2ccccc2c1)NCC1(c2ccc(-c3ccccc3)cc2)CCOCC1`, for which the IC50 worked out at 1520 nM.
In turn, `COC1CCC(C(=O)Nc2ccc(-c3cccc(-c4nc5c(C)cccc5[nH]4)c3)cc2)CC1` (centres undefined) displayed an IC50 of 580 nM.
`Cc1cc(-c2ccc(CNCc3ccsc3)cc2)ccc1S(=O)(=O)NCCN1CCCC1` showed a 50% inhibitory concentration (IC50) of 720 nM.
In turn, `O=C(Nc1ccccc1N1CCOCC1)c1ncoc1-c1ccccc1C(F)(F)F` showed an IC50 of 1060 nM.
Turning to `OCC1CCN(Cc2cccc(C#Cc3cc4ncnc(Nc5ccc(OCc6cccc(F)c6)c(Cl)c5)c4s3)n2)CC1`, the IC50 was determined as 550 nM.
As to `CN(/N=C/c1ccc(Cl)cc1)c1nc(NCCc2ccc(O)cc2)nc(N2CCNCC2)n1`, the IC50 stood at 1350 nM.
In the case of `Cc1cccc(CNc2nc(C)cc(N[C@@H](Cc3ccccc3)C(=O)NCc3cccc(F)c3)n2)c1`, the IC50 came out at 1040 nM.
`CC1(C)CCCN(Cc2c(O)ccc3c(=O)c(-c4nc5ccccc5s4)c(N)oc23)C1` registered a 50% inhibitory concentration (IC50) of 340 nM.
On to `Nc1c(Cl)cc(C(O)CNCCCCCOCCCc2ccc(O)c3ncccc23)cc1Cl` (centres undefined), for which the IC50 was found to be 990 nM.
Take `N#Cc1cccc(NC(=O)Nc2cccc(OC3CCN(Cc4ccccc4)CC3)c2)c1`: the IC50 was 840 nM.
Compound `CCCCCCC(C)c1cc(O)c2c(c1)OC(C)(C)C=C2c1ccncc1` (centres undefined) yielded an IC50 of 730 nM.
With `O=C(NCCCCN1CCC(c2ccc3c(c2OCC2COCO2)CCCC3)CC1)c1ccc(-c2ccc(C(F)(F)F)cc2)cc1` (centres undefined), the half-maximal inhibitory concentration (IC50) came to 870 nM.
Regarding `COc1cc(NC(=O)c2sc(-c3ccc(Cl)cc3)cc2NC(=O)c2ccncc2)ccc1OCCN1CCCC1`, the IC50 was found to be 30 nM.
For the compound `O=C(/C=C/c1ccc(Cl)c(Cl)c1)NCCCCCN1CCC(NC(=O)NC2CCCC2)CC1`, the IC50 was 630 nM.
As for `CC(C)Cc1ccc(N2CCN(CCCCNC(=O)c3ccc(NC(=O)c4ccc(Cl)c(Cl)c4)cc3)CC2)cc1`, the concentration for half-maximal inhibition (IC50) stood at 1200 nM.
The compound `NCc1ccc(CNCc2ccc(-c3ccc(-c4nc5ccc(F)cc5[nH]4)cc3)cc2)cc1` displayed an IC50 of 400 nM.
The compound `Cc1ccc(F)c(OCC2CCN(c3ncc(C(=O)NC4CC4)cc3Cl)CC2)c1` showed an IC50 of 900 nM.
As to `O=C(Nc1ccc(-c2nc3ccccc3[nH]2)cc1)c1ccc([N+](=O)[O-])s1`, the IC50 was found to be 250 nM.
In turn, `CCCNC(=O)c1cncc(-c2ccc(CNC3Cc4ccccc4C3)cc2)c1` came in with an IC50 of 850 nM.
In the case of `COc1nc2c(CCN3CC[C@H](NCc4cc(C#N)c5c(c4)OCCO5)[C@H](O)C3)ccnc2cc1F`, the 50% inhibitory concentration (IC50) stood at 780 nM.

Source of the values: PubChem BioAssay AID2305 (GlaxoSmithKline (GSK), 2010).
